Test results taken from PMC10590383, “Repurposing conformational changes in ANL superfamily enzymes to rapidly generate biosensors for organic and amino acids” (Nature Communications, 2023).

Columns and labels:
Experiment in all cases: Fluorescence dose-response of purified binding-pocket-engineered sensors (0.75 uM) in 100 mM Tris-HCl pH 7.5, room temperature, 1 mM ATP, 2.5 mM MgCl2, excitation 460 or 480 nm, emission 510 nm; logistic five-parameter fit.
Type in all cases: biochemical
Settings in all cases: n = 3
GECFINDER-Leu3 = molecular target: T1, GECFINDER-Leu3 (Aneurinibacillus migulanus, UniProt P0C061, A301G/S447N/T278L)
T1 construct: gene grsA
Method: (§1) Fig. 4 Engineering ligand specificity of GrsA-PheA for generating […]s. a The selectivity-conferring code of Phe and Leu A domains. b–f Dose–response curve of purified […]s with increasing concentrations of ligands in 100 mM Tris-HCl buffer (pH=7.5). All data shown are means ± S.D. (n = 3 biologically independent samples). g A series of […] reactions was tested to show the […]’s specificity with 20 proteinogenic amino acids. The values on the heatmap represent the ΔF/F0 value normalized to each […]’s maximal ΔF/F0 value ((ΔF/F0)/maximal ΔF/F0). The concentrations of 20 amino acids were 100 μM. The color indicates the average value of three independent biological replicates after 15 min. All data shown are means ± S.D. (n = 3 biologically independent samples). Source data are provided as a Source data file.
(§2) The study conducted dose–response curve, substrate specificity, and fluorescent spectrum analyses in 100-mM Tris buffer (pH = 7.5), while pH stability experiments were performed in 100-mM Tris buffer at three different pH values (6.5, 7.5, and 8.5) at room temperature. […] protein at a concentration of 0.75 μM, various small molecule concentrations, 1 mM ATP, and 2.5 mM MgCl2 were used in the experiments. Fluorescent signals were detected using a Microplate Reader (Synergy H4, Bio Tek) at an excitation/emission wavelength of 460 nm/510 nm or 480 nm/510 nm. The dose-response curve was determined immediately after the addition of the analyte. The total duration of the measurement was 15 min, with readings taken at one-minute intervals. The dose-response curve was plotted using the fluorescence values obtained after achieving stability in the fluorescence signal. The dose-response curves were fitted using the logistic model LOGISTIC5 available in Origin 2021, which could provide a more adequate fit to asymmetric dose-response data[62],[63]. Excitation spectra were scanned from 300 to 540 nm with a step size of 5 nm, and the emission wavelength was set to 560 nm. Emission spectra were scanned from 470 to 700 nm with a step size of 5 nm, and the excitation wavelength was set to 450 nm. The thermal stability of […] was analyzed using the UNcle multifunctional protein stability analysis system. Measurements were performed in 20 mM MOPS buffer with 2 mM DTT at a sample concentration of 1 mg/mL. Absolute fluorescence quantum yields were measured using an absolute photoluminescence quantum yield spectrometer (FS5, Edinburgh).

GECFINDER-Leu4 = molecular target: T2, GECFINDER-Leu4 (Aneurinibacillus migulanus, UniProt P0C061, A301G/I277L/S447N/T278L)
T2 construct: gene grsA
Method: as §1, §2

GECFINDER-Leu2 = molecular target: T3, GECFINDER-Leu2 (Aneurinibacillus migulanus, UniProt P0C061, A301G/I277L/T278L)
T3 construct: gene grsA
Method: as §1, §2

GECFINDER-Leu1 = molecular target: T4, GECFINDER-Leu1 (Aneurinibacillus migulanus, UniProt P0C061, A301G/T278M)
T4 construct: gene grsA; GrsA-PheA-PCP
Method: as §1, §2

T3 sequence (P0C061 1-617 I277L/T278L/A301G): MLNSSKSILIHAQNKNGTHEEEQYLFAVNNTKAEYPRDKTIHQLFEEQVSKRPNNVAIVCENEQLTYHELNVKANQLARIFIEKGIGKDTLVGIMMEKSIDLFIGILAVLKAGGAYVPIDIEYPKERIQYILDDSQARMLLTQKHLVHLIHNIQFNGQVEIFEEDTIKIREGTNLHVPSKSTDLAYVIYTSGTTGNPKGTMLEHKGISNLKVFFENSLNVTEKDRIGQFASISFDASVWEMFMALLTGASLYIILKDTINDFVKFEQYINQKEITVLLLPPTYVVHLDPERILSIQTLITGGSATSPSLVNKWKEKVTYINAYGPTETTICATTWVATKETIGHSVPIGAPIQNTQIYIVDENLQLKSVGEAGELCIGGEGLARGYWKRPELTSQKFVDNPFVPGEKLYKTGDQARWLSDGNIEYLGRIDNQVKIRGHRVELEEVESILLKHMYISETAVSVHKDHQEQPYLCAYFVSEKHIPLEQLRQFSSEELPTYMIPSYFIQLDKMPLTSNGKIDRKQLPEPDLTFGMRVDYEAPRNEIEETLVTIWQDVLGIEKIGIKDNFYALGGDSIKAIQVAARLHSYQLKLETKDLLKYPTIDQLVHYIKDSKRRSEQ
T1 sequence (P0C061 1-617 T278L/A301G/S447N): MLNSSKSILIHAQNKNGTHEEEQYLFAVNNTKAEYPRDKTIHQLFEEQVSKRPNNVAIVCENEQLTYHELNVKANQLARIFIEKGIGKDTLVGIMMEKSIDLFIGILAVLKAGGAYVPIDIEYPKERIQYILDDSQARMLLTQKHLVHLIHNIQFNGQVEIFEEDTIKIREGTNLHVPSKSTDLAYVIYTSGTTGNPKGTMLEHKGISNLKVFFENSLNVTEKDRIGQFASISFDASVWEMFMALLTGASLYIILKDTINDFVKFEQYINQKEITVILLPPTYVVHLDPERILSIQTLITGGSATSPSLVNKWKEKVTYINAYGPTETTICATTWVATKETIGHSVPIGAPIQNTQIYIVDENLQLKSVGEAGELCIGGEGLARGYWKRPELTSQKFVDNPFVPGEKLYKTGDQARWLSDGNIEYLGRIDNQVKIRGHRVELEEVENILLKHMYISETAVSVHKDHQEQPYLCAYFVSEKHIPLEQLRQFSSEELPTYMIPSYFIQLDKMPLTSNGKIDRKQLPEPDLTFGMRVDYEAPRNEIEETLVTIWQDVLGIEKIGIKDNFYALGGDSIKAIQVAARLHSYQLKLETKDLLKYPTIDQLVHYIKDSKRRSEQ
T2 sequence (P0C061 1-617 I277L/T278L/A301G/S447N): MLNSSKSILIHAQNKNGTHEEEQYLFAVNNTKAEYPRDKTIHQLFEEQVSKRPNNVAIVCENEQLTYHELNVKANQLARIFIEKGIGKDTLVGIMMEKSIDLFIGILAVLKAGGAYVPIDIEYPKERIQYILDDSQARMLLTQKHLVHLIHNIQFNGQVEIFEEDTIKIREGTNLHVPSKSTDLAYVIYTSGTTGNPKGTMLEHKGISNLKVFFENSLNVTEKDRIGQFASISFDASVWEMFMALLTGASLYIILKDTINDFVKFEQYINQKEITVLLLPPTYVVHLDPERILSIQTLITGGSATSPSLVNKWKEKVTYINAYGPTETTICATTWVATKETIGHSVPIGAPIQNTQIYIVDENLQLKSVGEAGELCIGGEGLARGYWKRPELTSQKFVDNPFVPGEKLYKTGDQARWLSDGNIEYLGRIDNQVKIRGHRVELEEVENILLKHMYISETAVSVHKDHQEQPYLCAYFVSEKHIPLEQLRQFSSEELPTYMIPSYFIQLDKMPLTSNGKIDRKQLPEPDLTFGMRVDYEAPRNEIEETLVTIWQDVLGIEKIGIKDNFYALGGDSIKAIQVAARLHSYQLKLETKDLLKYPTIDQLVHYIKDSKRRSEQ
T4 sequence (P0C061 1-617 T278M/A301G): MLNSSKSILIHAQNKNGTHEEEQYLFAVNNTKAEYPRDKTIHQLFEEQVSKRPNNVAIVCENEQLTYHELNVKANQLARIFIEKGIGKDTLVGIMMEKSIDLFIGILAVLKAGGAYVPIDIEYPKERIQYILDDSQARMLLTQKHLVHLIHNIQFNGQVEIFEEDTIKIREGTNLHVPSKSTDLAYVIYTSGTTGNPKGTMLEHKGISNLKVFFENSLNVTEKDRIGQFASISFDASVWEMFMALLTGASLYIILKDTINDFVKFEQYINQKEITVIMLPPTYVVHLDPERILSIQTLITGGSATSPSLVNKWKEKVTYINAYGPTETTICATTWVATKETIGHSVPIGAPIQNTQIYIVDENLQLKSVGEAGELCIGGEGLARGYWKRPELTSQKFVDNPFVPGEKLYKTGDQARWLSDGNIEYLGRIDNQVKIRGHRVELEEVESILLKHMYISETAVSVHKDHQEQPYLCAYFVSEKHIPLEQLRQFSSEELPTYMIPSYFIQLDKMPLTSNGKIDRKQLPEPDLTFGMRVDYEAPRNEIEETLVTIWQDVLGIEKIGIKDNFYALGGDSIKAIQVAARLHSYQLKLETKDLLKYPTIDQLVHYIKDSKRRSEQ

Molecule `CC(C)C[C@H](N)C(=O)O` [Leu, leucine] has an EC50 (GECFINDER-Leu3) of 200 ± 7.76 µM, an EC50 (GECFINDER-Leu4) of 106 ± 24.5 µM and an EC50 (GECFINDER-Leu2) of 207 ± 37.2 µM. It also gave an EC50 (GECFINDER-Leu1) of 58.4 ± 24.8 µM.
